Our source for the IC50 values is patent US10669242B2 (priority 2016, dated 2020).

For the experiment, the target named is T1, recombinant glucosyltransferase domain of C. difficile Toxin B/TcdB (Clostridioides difficile, UniProt P18177).
T1 construct: 6-His (C); purchased R&D Systems 6246-GT
The experiment can be described thus: biochemical.

Bounds are passed on as bounds.

By IC50 is commonly meant the concentration that gives 50% inhibition.

T1 sequence (P18177 1-543): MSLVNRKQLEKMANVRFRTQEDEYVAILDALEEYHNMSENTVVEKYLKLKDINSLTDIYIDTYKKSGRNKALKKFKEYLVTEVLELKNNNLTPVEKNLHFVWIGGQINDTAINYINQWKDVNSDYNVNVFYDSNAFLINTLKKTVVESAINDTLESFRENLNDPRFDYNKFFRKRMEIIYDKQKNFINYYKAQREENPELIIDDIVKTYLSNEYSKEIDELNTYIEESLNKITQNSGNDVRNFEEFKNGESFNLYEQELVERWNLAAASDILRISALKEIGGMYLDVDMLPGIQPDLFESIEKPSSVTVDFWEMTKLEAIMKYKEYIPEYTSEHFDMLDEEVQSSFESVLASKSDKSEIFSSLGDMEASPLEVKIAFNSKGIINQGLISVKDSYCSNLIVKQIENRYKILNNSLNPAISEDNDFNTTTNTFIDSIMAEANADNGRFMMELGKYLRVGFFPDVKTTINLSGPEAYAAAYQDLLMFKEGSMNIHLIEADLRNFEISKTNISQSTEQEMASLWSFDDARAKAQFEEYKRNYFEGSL

With `COc1ccc(NC(=O)c2ccc(CN3C(=O)c4ccc(Cl)cc4NC(=O)[C@H]3Cc3ccccn3)cc2OC)nc1` [Example 4cn, (R)-4-((8-chloro-2,5-dioxo-3-(pyridin-2-ylmethyl)-2,3-dihydro-1H-benzo[e][1,4]diazepin-4(5H)-yl)methyl)-2-methoxy-N-(5-methoxypyridin-2-yl)benzamide], the IC50 is less than 100 nM.
Consider `Cc1ccc(C(=O)N[C@H]2CC[C@H](CN3C(=O)c4ccc(Cl)cc4NC(=O)[C@H]3Cc3ccccn3)CC2)nc1` [Example 25a, N-((1R,4r)-4-(((R)-8-Chloro-2,5-dioxo-3-(pyridin-2-ylmethyl)-2,3-dihydro-1H-benzo[e][1,4]diazepin-4(5H)-yl)methyl)cyclohexyl)-5-methylpicolinamide], for which the concentration for half-maximal inhibition (IC50) lay within 100 to 999 nM.
Turning to `Cc1ccc(NC(=O)c2ccc(CN3C(=O)c4ccc(Cl)cc4NC(=O)[C@H]3CCN3CCNC(=O)C3)cc2)nc1` [Example 10e], the IC50 lay within 1000 to 10000 nM.
As for `O=C(Nc1ncc(C(F)(F)F)cn1)c1ccc(CN2C(=O)c3ccc(Cl)cc3NC(=O)[C@H]2Cc2ccccn2)cc1` [Example 49a, (R)-4-((8-Chloro-2,5-dioxo-3-(pyridin-2-ylmethyl)-2,3-dihydro-1H-benzo[e][1,4]diazepin-4(5H)-yl)methyl)-N-(5-(trifluoromethyl)pyrimidin-2-yl)benzamide], the half-inhibitory concentration (IC50) was less than 100 nM.
For `COc1cc(NC(=O)c2ccc(CN3C(=O)c4ccc(Cl)cc4NC(=O)[C@H]3Cc3cccnc3)cc2)ncn1` [Example 5j], the IC50 was less than 100 nM.
For the molecule `Cc1ccc2c(c1)NC(=O)[C@@H](Cc1ccc(Cl)c(Cl)c1)N(Cc1ccc(C(=O)O)cc1)C2=O` [Example 1e], the half-inhibitory concentration (IC50) is 10000 to 35000 nM.
The result for `O=C(Nc1ccc(CN2C(=O)c3ccc(Cl)cc3NC(=O)[C@H]2Cc2ccccn2)cc1)c1ncc[nH]1` [Example 27h] reads less than 100 nM; that for `O=C(O)c1ccc(CN2C(=O)c3ccc(Cl)cc3NC(=O)[C@H]2Cc2ccccn2)cc1-c1ccc(F)c(Cl)c1` [Example 8l, (R)-3′-chloro-5-((8-chloro-2,5-dioxo-3-(pyridin-2-ylmethyl)-2,3-dihydro-1H-benzo[e][1,4]diazepin-4(5H)-yl)methyl)-4′-fluoro-[1,1′-biphenyl]-2-carboxylic acid], 100 to 999 nM; that for `CC1(C)CN(C(=O)c2ccc(CN3C(=O)c4ccc(Cl)cc4NC(=O)[C@H]3Cc3ccccn3)cc2Cl)c2ncccc21` [Example 4as, (R)-8-chloro-4-(3-chloro-4-(3,3-dimethyl-2,3-dihydro-1H-pyrrolo[2,3-b]pyridine-1-carbonyl)benzyl)-3-(pyridin-2-ylmethyl)-3,4-dihydro-1H-benzo[e][1,4]diazepine-2,5-dione], less than 100 nM.
For the molecule `O=C(Nc1ccccn1)c1ccc(CN2C(=O)c3ccc([N+](=O)[O-])cc3NC(=O)[C@H]2Cc2ccc(Cl)c(Cl)c2)cc1` [Example 4ae, (R)-4-((3-(3,4-dichlorobenzyl)-8-nitro-2,5-dioxo-2,3-dihydro-1H-benzo[e][1,4]diazepin-4(5H)-yl)methyl)-N-(pyridin-2-yl)benzamide], the half-maximal inhibitory concentration (IC50) was 100 to 999 nM.
Consider `Cc1ccc(NC(=O)c2ccc(CN3C(=O)c4ccc(Cl)cc4NC(=O)[C@H]3Cc3cccnc3)cc2)nc1` [Example 4n, (R)-4-((8-chloro-2,5-dioxo-3-(pyridin-3-ylmethyl)-2,3-dihydro-1H-benzo[e][1,4]diazepin-4(5H)-yl)methyl)-N-(5-methylpyridin-2-yl)benzamide], for which the half-inhibitory concentration (IC50) is less than 100 nM.
On to `O=C(Nc1ccccn1)c1ccc(CN2C(=O)c3ccc(C(F)(F)F)cc3NC(=O)[C@H]2Cc2ccc(Cl)c(Cl)c2)cc1` [Example 35f], for which the IC50 was 1000 to 10000 nM.
Regarding `Cc1ccc(Nc2nn(C)c3cc(CN4C(=O)c5ccc(Cl)cc5NC(=O)[C@H]4Cc4ccccn4)ccc23)nc1` [Example 44a, (R)-8-Chloro-4-((1-methyl-3-((5-methylpyridin-2-yl)amino)-1H-indazol-6-yl)methyl)-3-(pyridin-2-ylmethyl)-3,4-dihydro-1H-benzo[e][1,4]diazepine-2,5-dione], the IC50 is 100 to 999 nM.
On to `O=C1Nc2cc(Cl)ccc2C(=O)N(Cc2ccc(C(=O)N3CCCc4cccnc43)cc2)[C@@H]1Cc1ccccn1` [Example 4ag, (R)-8-chloro-3-(pyridin-2-ylmethyl)-4-(4-(1,2,3,4-tetrahydro-1,8-naphthyridine-1-carbonyl)benzyl)-3,4-dihydro-1H-benzo[e][1,4]diazepine-2,5-dione], for which the IC50 lay within 1000 to 10000 nM.
With `O=C(Nc1ccccn1)c1ccc(CN2C(=O)c3ccc(Cl)cc3NC(=O)[C@H]2Cc2ccccc2)cc1` [Example 4h, (R)-4-((3-benzyl-8-chloro-2,5-dioxo-2,3-dihydro-1H-benzo[e][1,4]diazepin-4(5H)-yl)methyl)-N-(pyridin-2-yl)benzamide], the IC50 was less than 100 nM.
`CN(C)C(=O)c1ccc(CN2C(=O)c3ccc(Cl)cc3NC(=O)[C@H]2Cc2cccnc2)cc1` [Example 13b, (R)-4-((8-chloro-2,5-dioxo-3-(pyridin-3-ylmethyl)-2,3-dihydro-1H-benzo[e][1,4]diazepin-4(5H)-yl)methyl)-N,N-dimethylbenzamide]: the half-inhibitory concentration (IC50) lay in the range of 10000 to 35000 nM.
In the case of `Cn1cnc(C(=O)[C@H]2CC[C@H](CN3C(=O)c4ccc(Cl)cc4NC(=O)[C@H]3Cc3ccccn3)CC2)c1` [Example 33d] it was 100 to 999 nM; in that of `O=C(Nc1ccc(Cl)cn1)c1ccc(CN2C(=O)c3ccc(Cl)cc3NC(=O)[C@H]2Cc2cccnc2)cc1` [Example 5d, (R)-4-((8-chloro-2,5-dioxo-3-(pyridin-3-ylmethyl)-2,3-dihydro-1H-benzo[e][1,4]diazepin-4(5H)-yl)methyl)-N-(5-chloropyridin-2-yl)benzamide], less than 100 nM.
In the case of `Nc1cccnc1C(=O)Nc1ccc(CN2C(=O)c3ccc(Cl)cc3NC(=O)[C@H]2Cc2ccccn2)cc1` [Example 45a, (R)-3-Amino-N-(4-((8-chloro-2,5-dioxo-3-(pyridin-2-ylmethyl)-2,3-dihydro-1H-benzo[e][1,4]diazepin-4(5H)-yl)methyl)phenyl)picolinamide] it was less than 100 nM; in that of `C[C@@H]1C(=O)Nc2cc(Cl)ccc2C(=O)N1Cc1ccc(C(=O)Nc2ccc(N3CCN(C(=O)OC(C)(C)C)CC3)cn2)cc1` [Example 4bg, (R)-tert-butyl 4-(6-(4-((8-chloro-3-methyl-2,5-dioxo-2,3-dihydro-1H-benzo[e][1,4]diazepin-4(5H)-yl)methyl)benzamido)pyridin-3-yl)piperazine-1-carboxylate], 100 to 999 nM; in that of `Cc1cnc(NC(=O)c2ccc(CN3C(=O)c4ccc(Cl)cc4NC(=O)[C@H]3Cc3ccccn3)cc2Cl)s1` [Example 4cc, (R)-2-chloro-4-((8-chloro-2,5-dioxo-3-(pyridin-2-ylmethyl)-2,3-dihydro-1H-benzo[e][1,4]diazepin-4(5H)-yl)methyl)-N-(5-methylthiazol-2-yl)benzamide], less than 100 nM.
Consider `O=C1Nc2cc(Cl)ccc2C(=O)N(C[C@H]2CC[C@H](C(=O)N3CCCc4cccnc43)CC2)[C@@H]1Cc1ccccn1` [Example 4ch, (R)-8-chloro-3-(pyridin-2-ylmethyl)-4-(((1r,4R)-4-(1,2,3,4-tetrahydro-1,8-naphthyridine-1-carbonyl)cyclohexyl)methyl)-3,4-dihydro-1H-benzo[e][1,4]diazepine-2,5-dione], for which the IC50 lay within 10000 to 35000 nM.
Take `O=C(c1ccc(CN2C(=O)c3ccc(Cl)cc3NC(=O)[C@H]2Cc2ccccn2)cc1)c1cccn2ncnc12` [Example 31f]: the IC50 is less than 100 nM.
